System: Epiphyas postvittana
Assay: Large Vineyard Trial 2 (disruption of catch to four component lures)
Format: in vivo
Settings: added at 4:1 ratio E11-14:Ac to Z11-14:Ac (Blends 4, 5)
Protocol: All compounds used as authentic standards in the chromatographic analysis or in the field trapping experiments were >97% pure by GC analysis and stored at −80° C. until used. Samples of E11-14:Ac, E9E11-14:Ac, E11-14:OH and E11-16:Ac were purchased from Plant Research International, Wageningen, The Netherlands. All blends of synthetic compounds were applied to the large “well” of red rubber septa (West Pharmaceutical Services, Kearney, N.E., USA) in 200 μl of n-hexane GR (Merck Ltd, New Zealand). The solvent was allowed to evaporate in a fume hood and the septa were stored in heat-sealed foil bags at −20° C. until ready for use. For traps used in assessing disruption, lures contained the four component lure at 1 mg loading with the blends shown in Table 1. […]
Traps were maintained weekly as a short central row transect in each case, with 3 traps containing the four component lure. […] For both trials, the number of moths in the traps was recorded each week. […]
For both Large Vineyard Trials 1 and 2, counts for each date were analysed. In addition, the total pre-treatment and post-treatment counts were analysed. […] Random effects assessed were blocks (replicates), plots within blocks, and spatial position (rows and column as in the Trial plans). In addition to the treatments, for the post-treatment counts, a co-variate for the trap counts in the last pre-treatment week was assessed as a fixed effect. […]

CC/C=C\CCCCCCCCCCOC(C)=O [Z11-14:Ac, (Z)-11-tetradecenyl acetate] was tested, and the “effect of the inhibitor on disruption” value was “antagonistic to disruption”.

— patent US20140004075A1, “PHEROMONE COMPOSITION” (The New Zealand Institute for Plant and Food Research …, priority 2010, published 2014)
